Each block holds one compound with its values, some of them ahead of it.
How the values were obtained:
Experiment in all cases: Caliper, Mobility shift assay off-chip
LATS2 (human) = LATS2 (human) (UniProt Q9NRM7)
ALK EML4 (human) = ALK EML4 (human) (UniProt Q9HC35+Q9UM73)
PRKAA1 (human) = PRKAA1 (human) (UniProt Q13131)
AURKC (human) = AURKC (human) (UniProt Q9UQB9)
ZAP70 (human) = ZAP70 (human) (UniProt P43403)
CHEK2 (human) = CHEK2 (human) (UniProt O96017)
PBK (human) = PBK (human) (UniProt Q96KB5)
PTK2 (human) = PTK2 (human) (UniProt Q05397)
PAK4 (human) = PAK4 (human) (UniProt O96013)
CAMK2D (human) = CAMK2D (human) (UniProt Q13557)
CAMK1D (human) = CAMK1D (human) (UniProt Q8IU85)
AXL (human) = AXL (human) (UniProt P30530)
MAPK3 (human) = MAPK3 (human) (UniProt P27361)
NIM1 (human) = NIM1 (human) (UniProt Q8IY84)
CSNK1G2 (human) = CSNK1G2 (human) (UniProt P78368)
MAPK8 (human) = MAPK8 (human) (UniProt P45983)
ERBB4 (human) = ERBB4 (human) (UniProt Q15303)
PAK7 (human) = PAK7 (human) (UniProt Q9P286)
PTK2B (human) = PTK2B (human) (UniProt Q14289)
MARK3 (human) = MARK3 (human) (UniProt P27448)
DYRK1B (human) = DYRK1B (human) (UniProt Q9Y463)
AKT3 (human) = AKT3 (human) (UniProt Q9Y243)
PGK1 (human) = PGK1 (human) (UniProt P00558)
STK38 (human) = STK38 (human) (UniProt Q15208)
TAOK2 (human) = TAOK2 (human) (UniProt Q9UL54)
MKNK1 (human) = MKNK1 (human) (UniProt Q9BUB5)
ROCK1 (human) = ROCK1 (human) (UniProt Q13464)
MAPKAPK2 (human) = MAPKAPK2 (human) (UniProt P49137)
PIM3 (human) = PIM3 (human) (UniProt Q86V86)
CAMK2A (human) = CAMK2A (human) (UniProt Q9UQM7)
ROCK2 (human) = ROCK2 (human) (UniProt O75116)
NEK6 (human) = NEK6 (human) (UniProt Q9HC98)
HIPK2 (human) = HIPK2 (human) (UniProt Q9H2X6)

Chain of AURKC (human) (Q9UQB9 whole entry, looked up): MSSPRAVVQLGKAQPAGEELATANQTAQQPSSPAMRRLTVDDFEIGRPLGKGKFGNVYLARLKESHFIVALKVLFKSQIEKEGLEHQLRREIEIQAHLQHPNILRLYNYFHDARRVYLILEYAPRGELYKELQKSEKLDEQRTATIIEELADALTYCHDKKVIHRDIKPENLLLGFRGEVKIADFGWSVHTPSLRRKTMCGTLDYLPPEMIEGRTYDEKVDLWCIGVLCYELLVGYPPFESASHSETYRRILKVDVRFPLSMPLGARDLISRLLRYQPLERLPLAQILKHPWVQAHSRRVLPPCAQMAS
Chain of DYRK1B (human) (Q9Y463 whole entry, looked up): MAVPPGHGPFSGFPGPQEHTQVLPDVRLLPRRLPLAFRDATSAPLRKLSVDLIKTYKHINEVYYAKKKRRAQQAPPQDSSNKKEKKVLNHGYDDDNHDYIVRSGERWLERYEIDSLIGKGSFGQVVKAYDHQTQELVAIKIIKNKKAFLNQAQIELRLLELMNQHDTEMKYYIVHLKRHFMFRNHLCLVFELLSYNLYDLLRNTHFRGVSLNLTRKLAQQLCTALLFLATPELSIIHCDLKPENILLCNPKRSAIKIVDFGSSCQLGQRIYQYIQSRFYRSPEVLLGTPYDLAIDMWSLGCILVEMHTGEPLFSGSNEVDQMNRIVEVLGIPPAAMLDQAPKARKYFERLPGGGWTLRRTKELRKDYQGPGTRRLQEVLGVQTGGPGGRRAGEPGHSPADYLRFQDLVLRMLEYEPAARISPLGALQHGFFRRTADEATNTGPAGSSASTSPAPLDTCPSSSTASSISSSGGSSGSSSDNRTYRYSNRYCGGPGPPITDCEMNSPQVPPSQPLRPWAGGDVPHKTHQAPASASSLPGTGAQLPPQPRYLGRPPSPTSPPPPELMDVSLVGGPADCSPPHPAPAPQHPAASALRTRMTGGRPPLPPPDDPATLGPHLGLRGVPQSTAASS
Chain of ZAP70 (human) (P43403 whole entry, looked up): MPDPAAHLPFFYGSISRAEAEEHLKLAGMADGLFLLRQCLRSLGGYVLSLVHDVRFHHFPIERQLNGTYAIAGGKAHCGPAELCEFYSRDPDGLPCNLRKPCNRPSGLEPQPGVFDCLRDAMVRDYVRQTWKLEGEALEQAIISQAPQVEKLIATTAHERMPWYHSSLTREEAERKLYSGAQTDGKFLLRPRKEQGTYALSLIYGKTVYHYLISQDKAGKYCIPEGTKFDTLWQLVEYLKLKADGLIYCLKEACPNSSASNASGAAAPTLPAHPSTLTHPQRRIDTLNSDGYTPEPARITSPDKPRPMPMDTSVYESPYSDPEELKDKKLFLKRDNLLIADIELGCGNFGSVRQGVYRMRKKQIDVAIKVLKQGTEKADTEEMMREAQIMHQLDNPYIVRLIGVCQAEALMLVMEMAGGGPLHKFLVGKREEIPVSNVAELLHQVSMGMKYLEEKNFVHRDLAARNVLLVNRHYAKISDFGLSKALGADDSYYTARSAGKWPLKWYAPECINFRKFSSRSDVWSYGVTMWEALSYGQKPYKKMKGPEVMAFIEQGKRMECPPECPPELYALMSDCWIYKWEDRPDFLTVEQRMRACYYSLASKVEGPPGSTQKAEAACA
Chain of PBK (human) (Q96KB5 whole entry, looked up): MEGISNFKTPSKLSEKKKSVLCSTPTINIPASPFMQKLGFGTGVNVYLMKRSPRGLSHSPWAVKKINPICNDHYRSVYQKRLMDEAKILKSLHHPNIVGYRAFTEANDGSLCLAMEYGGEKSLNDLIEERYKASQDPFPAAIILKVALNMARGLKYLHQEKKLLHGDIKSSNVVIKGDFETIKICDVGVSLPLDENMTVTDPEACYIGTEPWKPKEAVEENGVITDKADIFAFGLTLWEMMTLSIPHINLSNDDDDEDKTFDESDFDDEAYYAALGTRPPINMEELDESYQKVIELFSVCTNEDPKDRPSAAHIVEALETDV
Chain of CHEK2 (human) (O96017 whole entry, looked up): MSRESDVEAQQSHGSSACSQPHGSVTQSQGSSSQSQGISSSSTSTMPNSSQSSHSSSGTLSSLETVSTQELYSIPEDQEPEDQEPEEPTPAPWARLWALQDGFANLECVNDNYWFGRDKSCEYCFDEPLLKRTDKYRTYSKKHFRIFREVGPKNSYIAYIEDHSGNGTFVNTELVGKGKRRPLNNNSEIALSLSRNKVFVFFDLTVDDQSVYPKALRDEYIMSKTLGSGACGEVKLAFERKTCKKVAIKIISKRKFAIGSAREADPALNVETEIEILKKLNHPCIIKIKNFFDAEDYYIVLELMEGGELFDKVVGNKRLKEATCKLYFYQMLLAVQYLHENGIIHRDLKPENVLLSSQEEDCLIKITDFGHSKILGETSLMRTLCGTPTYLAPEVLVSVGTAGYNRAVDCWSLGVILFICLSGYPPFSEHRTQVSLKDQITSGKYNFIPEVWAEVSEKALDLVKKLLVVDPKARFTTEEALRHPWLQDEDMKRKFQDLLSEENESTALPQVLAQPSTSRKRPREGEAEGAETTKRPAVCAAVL
Chain of CAMK2A (human) (Q9UQM7 whole entry, looked up): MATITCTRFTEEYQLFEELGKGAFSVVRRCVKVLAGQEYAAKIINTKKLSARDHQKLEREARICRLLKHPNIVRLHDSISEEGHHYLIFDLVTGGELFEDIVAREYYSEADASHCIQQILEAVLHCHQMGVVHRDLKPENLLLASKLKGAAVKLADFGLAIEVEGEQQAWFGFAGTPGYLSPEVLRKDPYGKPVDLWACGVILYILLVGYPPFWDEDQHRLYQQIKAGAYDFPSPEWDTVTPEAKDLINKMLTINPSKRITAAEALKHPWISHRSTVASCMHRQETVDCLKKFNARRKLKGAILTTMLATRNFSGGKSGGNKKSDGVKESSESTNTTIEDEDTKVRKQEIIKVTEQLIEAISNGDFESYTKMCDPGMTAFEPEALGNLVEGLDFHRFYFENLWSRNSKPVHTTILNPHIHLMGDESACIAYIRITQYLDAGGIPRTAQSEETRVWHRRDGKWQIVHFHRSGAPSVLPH
Chain of AXL (human) (P30530 whole entry, looked up): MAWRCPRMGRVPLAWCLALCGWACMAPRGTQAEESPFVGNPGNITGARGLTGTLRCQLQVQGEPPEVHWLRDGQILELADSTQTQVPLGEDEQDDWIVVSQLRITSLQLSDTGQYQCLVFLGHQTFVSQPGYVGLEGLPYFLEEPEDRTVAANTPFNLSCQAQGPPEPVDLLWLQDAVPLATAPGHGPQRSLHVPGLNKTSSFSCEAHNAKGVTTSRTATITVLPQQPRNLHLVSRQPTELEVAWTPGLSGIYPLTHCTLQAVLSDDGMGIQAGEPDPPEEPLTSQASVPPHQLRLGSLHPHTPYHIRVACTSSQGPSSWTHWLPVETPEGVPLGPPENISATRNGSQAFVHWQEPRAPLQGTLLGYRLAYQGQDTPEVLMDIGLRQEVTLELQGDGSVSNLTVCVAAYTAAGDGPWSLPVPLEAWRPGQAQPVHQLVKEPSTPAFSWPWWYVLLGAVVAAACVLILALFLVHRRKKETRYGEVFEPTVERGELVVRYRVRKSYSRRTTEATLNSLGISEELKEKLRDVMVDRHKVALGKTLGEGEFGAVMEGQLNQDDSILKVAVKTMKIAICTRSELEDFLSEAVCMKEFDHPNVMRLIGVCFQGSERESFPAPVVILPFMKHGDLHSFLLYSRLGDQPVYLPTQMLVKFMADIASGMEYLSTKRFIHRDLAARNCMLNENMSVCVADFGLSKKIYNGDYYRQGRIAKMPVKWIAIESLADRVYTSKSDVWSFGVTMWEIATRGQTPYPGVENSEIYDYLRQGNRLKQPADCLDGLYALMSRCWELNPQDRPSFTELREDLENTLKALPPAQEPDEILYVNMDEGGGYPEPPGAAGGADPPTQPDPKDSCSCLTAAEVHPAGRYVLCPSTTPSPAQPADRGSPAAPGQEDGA
Chain of MAPK8 (human) (P45983 whole entry, looked up): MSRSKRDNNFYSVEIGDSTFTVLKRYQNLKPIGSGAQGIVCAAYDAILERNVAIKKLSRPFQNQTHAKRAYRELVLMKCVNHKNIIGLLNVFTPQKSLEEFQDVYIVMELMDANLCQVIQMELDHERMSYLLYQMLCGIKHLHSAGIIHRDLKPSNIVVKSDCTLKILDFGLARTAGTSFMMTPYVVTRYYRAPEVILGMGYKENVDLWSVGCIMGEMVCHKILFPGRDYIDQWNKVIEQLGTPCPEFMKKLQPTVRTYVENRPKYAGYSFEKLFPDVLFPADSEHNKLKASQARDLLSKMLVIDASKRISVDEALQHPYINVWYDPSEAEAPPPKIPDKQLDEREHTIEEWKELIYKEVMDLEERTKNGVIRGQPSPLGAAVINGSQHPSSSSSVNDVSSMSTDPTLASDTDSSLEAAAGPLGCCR
Chain of MAPK3 (human) (P27361 whole entry, looked up): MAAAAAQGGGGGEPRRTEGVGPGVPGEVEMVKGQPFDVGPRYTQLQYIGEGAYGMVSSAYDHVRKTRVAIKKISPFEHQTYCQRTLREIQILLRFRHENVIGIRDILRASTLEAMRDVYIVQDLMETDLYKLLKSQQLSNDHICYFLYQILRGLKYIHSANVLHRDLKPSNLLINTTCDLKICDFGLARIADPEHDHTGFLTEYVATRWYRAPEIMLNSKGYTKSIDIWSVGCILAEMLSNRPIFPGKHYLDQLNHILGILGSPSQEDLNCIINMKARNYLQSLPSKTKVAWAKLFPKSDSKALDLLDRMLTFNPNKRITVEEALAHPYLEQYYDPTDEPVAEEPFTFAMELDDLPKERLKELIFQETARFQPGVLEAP
Chain of NEK6 (human) (Q9HC98 whole entry, looked up): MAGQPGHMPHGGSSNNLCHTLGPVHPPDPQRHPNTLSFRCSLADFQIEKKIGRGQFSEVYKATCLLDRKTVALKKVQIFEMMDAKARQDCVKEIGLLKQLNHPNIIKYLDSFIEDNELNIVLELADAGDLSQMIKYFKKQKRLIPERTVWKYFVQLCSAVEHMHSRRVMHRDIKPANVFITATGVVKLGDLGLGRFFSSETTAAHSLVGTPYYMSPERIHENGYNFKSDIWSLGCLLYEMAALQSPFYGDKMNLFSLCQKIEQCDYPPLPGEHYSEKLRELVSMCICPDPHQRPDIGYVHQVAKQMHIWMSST

inhibition (LATS2 (human); compound 0.02 µM): -4.4% | inhibition (LATS2 (human); compound 0.2 µM): 2.8% | inhibition (ALK EML4 (human); compound 0.02 µM): -6.5% | inhibition (ALK EML4 (human); compound 0.2 µM): 2.8% | inhibition (PRKAA1 (human); compound 0.02 µM): -5.7% | inhibition (PRKAA1 (human); compound 0.2 µM): 10.7% | inhibition (AURKC (human); compound 0.02 µM): 0% | inhibition (AURKC (human); compound 0.2 µM): 11.8% | inhibition (ZAP70 (human); compound 0.02 µM): -17.2% | inhibition (ZAP70 (human); compound 0.2 µM): 19.1% | inhibition (CHEK2 (human); compound 0.02 µM): -0.8% | inhibition (CHEK2 (human); compound 0.2 µM): 2.2% | inhibition (PBK (human); compound 0.02 µM): -6% | inhibition (PBK (human); compound 0.2 µM): -5.2% | inhibition (PTK2 (human); compound 0.02 µM): -4.6% | inhibition (PTK2 (human); compound 0.2 µM): -3.4% | inhibition (PAK4 (human); compound 0.02 µM): -8% | inhibition (PAK4 (human); compound 0.2 µM): 4.4% | inhibition (CAMK2D (human); compound 0.2 µM): 5.2% | inhibition (CAMK1D (human); compound 0.02 µM): -6.7% | inhibition (CAMK1D (human); compound 0.2 µM): 3.1% | inhibition (AXL (human); compound 0.02 µM): -7.4% | inhibition (AXL (human); compound 0.2 µM): 7.1% | inhibition (MAPK3 (human); compound 0.02 µM): -2.3% | inhibition (MAPK3 (human); compound 0.2 µM): -0.7% | inhibition (NIM1 (human); compound 0.02 µM): -3.6% | inhibition (NIM1 (human); compound 0.2 µM): 6.4% | inhibition (CSNK1G2 (human); compound 0.02 µM): -18.7% | inhibition (CSNK1G2 (human); compound 0.2 µM): -0.7% | inhibition (MAPK8 (human); compound 0.02 µM): -2.3% | inhibition (MAPK8 (human); compound 0.2 µM): -2.1% | inhibition (ERBB4 (human); compound 0.02 µM): -0.4% | inhibition (ERBB4 (human); compound 0.2 µM): 10.4% | inhibition (PAK7 (human); compound 0.02 µM): -2.5% | inhibition (PAK7 (human); compound 0.2 µM): -1.8% | inhibition (PTK2B (human); compound 0.02 µM): -2.8% | inhibition (PTK2B (human); compound 0.2 µM): -2.7% | inhibition (MARK3 (human); compound 0.02 µM): -5.5% | inhibition (MARK3 (human); compound 0.2 µM): 5.7% | inhibition (DYRK1B (human); compound 0.02 µM): -6.7% | inhibition (DYRK1B (human); compound 0.2 µM): 0.6% | inhibition (AKT3 (human); compound 0.02 µM): -2.6% | inhibition (AKT3 (human); compound 0.2 µM): -1.1% | inhibition (PGK1 (human); compound 0.02 µM): -6.2% | inhibition (PGK1 (human); compound 0.2 µM): 1.9% | inhibition (STK38 (human); compound 0.02 µM): -2.5% | inhibition (STK38 (human); compound 0.2 µM): 4.8% | inhibition (TAOK2 (human); compound 0.02 µM): 7.3% | inhibition (TAOK2 (human); compound 0.2 µM): 48% | inhibition (MKNK1 (human); compound 0.02 µM): -1.3% | inhibition (MKNK1 (human); compound 0.2 µM): 6.4% | inhibition (ROCK1 (human); compound 0.02 µM): -1.1% | inhibition (ROCK1 (human); compound 0.2 µM): 6.8% | inhibition (MAPKAPK2 (human); compound 0.02 µM): -7.2% | inhibition (MAPKAPK2 (human); compound 0.2 µM): -2% | inhibition (PIM3 (human); compound 0.02 µM): -1.8% | inhibition (PIM3 (human); compound 0.2 µM): -4.2% | inhibition (CAMK2A (human); compound 0.02 µM): -2.1% | inhibition (CAMK2A (human); compound 0.2 µM): 5.8% | inhibition (ROCK2 (human); compound 0.02 µM): -2% | inhibition (ROCK2 (human); compound 0.2 µM): 2.8% | inhibition (NEK6 (human); compound 0.02 µM): -5% | inhibition (NEK6 (human); compound 0.2 µM): -6.1%
SMILES: CNC(=O)c1cc(Oc2ccc(NC(=O)Nc3ccc(Cl)c(C(F)(F)F)c3)cc2)ccn1

inhibition (ALK EML4 (human); compound 0.2 µM): 70.5% | inhibition (ALK EML4 (human); compound 4.0 µM): 100% | inhibition (PRKAA1 (human); compound 0.2 µM): 62.6% | inhibition (PRKAA1 (human); compound 4.0 µM): 98.7% | inhibition (AURKC (human); compound 0.2 µM): 23.2% | inhibition (AURKC (human); compound 4.0 µM): 87.1% | inhibition (ZAP70 (human); compound 0.2 µM): 6.8% | inhibition (ZAP70 (human); compound 4.0 µM): 37.7% | inhibition (CHEK2 (human); compound 0.2 µM): 78.8% | inhibition (CHEK2 (human); compound 4.0 µM): 98.8% | inhibition (PBK (human); compound 0.2 µM): -6.1% | inhibition (PBK (human); compound 4.0 µM): -7.6% | inhibition (PAK4 (human); compound 0.2 µM): 16.2% | inhibition (PAK4 (human); compound 4.0 µM): 62.8% | inhibition (CAMK2D (human); compound 0.2 µM): 88.8% | inhibition (CAMK2D (human); compound 4.0 µM): 100% | inhibition (AXL (human); compound 0.2 µM): 96.8% | inhibition (AXL (human); compound 4.0 µM): 102% | inhibition (MAPK3 (human); compound 0.2 µM): -4.8% | inhibition (MAPK3 (human); compound 4.0 µM): -0.9% | inhibition (NIM1 (human); compound 0.2 µM): 17.9% | inhibition (NIM1 (human); compound 4.0 µM): 67.1% | inhibition (MAPK8 (human); compound 0.2 µM): -3.9% | inhibition (MAPK8 (human); compound 4.0 µM): -16% | inhibition (ERBB4 (human); compound 0.2 µM): -0.9% | inhibition (ERBB4 (human); compound 4.0 µM): 33.9% | inhibition (PAK7 (human); compound 0.2 µM): 20.1% | inhibition (PAK7 (human); compound 4.0 µM): 77.7% | inhibition (PTK2B (human); compound 0.2 µM): 72.4% | inhibition (PTK2B (human); compound 4.0 µM): 101% | inhibition (MARK3 (human); compound 0.2 µM): 77.4% | inhibition (MARK3 (human); compound 4.0 µM): 99% | inhibition (DYRK1B (human); compound 4.0 µM): 74.7% | inhibition (AKT3 (human); compound 0.2 µM): 2.3% | inhibition (AKT3 (human); compound 4.0 µM): 44.8% | inhibition (PGK1 (human); compound 0.2 µM): 12.5% | inhibition (PGK1 (human); compound 4.0 µM): 74.1% | inhibition (STK38 (human); compound 0.2 µM): 8.9% | inhibition (STK38 (human); compound 4.0 µM): 45.1% | inhibition (TAOK2 (human); compound 0.2 µM): 3.8% | inhibition (TAOK2 (human); compound 4.0 µM): 18.6% | inhibition (MKNK1 (human); compound 0.2 µM): 7.4% | inhibition (MKNK1 (human); compound 4.0 µM): 30.3% | inhibition (ROCK1 (human); compound 0.2 µM): 8.9% | inhibition (ROCK1 (human); compound 4.0 µM): 55.4% | inhibition (MAPKAPK2 (human); compound 0.2 µM): 4% | inhibition (MAPKAPK2 (human); compound 4.0 µM): 5.5% | inhibition (PIM3 (human); compound 0.2 µM): 3.1% | inhibition (PIM3 (human); compound 4.0 µM): 42.9% | inhibition (CAMK2A (human); compound 0.2 µM): 24.5% | inhibition (CAMK2A (human); compound 4.0 µM): 89% | inhibition (ROCK2 (human); compound 0.2 µM): 20% | inhibition (ROCK2 (human); compound 4.0 µM): 76.7% | inhibition (NEK6 (human); compound 0.2 µM): -1.5% | inhibition (NEK6 (human); compound 4.0 µM): -6.8% | inhibition (HIPK2 (human); compound 0.2 µM): 74.2% | inhibition (HIPK2 (human); compound 4.0 µM): 99.3%
SMILES: CCN(CC)CCNC(=O)c1c(C)[nH]c(/C=C2\C(=O)Nc3ccc(F)cc32)c1C

From the kinase profiling compilation of Christmann-Franck et al. (2016)
